# Columns and labels:
# NOX2 = target: T1, NOX2 (Homo sapiens, UniProt P04839); test: Nox2 cell-free assay (LO12 luminescence); type: biochemical; conditions: Nox2 cell-free system; for IC50: read-out: NOX2 IC50 (concentration giving half-maximal inhibition); for Emax: value in parentheses, read-out: % inhibition (maximum inhibition achieved at a very high concentration of the compound)
# T1 construct: isolated plasma membranes from human neutrophils as a source for Nox2-p22phox; from tissue; host or cells: Plasma membranes of human neutrophils (Nox2-p22phox); cytosolic factors recombinant from E. coli
# T1 sequence (P04839 2-570 limits assumed): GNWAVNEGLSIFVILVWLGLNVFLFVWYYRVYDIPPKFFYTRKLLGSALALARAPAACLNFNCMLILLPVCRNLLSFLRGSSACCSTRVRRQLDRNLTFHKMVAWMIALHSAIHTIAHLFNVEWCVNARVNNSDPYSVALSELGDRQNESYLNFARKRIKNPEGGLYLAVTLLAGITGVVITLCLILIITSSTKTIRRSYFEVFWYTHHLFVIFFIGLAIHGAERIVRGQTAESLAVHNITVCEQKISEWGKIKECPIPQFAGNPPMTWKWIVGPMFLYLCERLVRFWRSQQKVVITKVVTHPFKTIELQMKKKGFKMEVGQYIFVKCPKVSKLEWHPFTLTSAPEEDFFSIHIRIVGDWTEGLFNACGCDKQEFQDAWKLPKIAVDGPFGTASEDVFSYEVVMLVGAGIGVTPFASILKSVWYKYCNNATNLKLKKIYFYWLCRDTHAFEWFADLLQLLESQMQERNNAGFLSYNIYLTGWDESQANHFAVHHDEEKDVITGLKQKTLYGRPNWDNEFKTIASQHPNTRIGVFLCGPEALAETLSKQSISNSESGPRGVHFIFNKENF
# T1 sequence (P13498 2-195 partner limits assumed): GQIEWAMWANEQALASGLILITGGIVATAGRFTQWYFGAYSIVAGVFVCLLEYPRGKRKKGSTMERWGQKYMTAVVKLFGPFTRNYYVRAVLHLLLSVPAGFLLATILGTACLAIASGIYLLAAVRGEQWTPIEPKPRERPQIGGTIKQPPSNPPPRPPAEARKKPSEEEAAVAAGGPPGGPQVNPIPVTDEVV
# Method: The following compounds were tested according to the procedures provided in the experimental section. Assays were carried out using the Nox2 cell-free system. The IC50 value is the concentration giving half-maximal inhibition, while the “% inhibition” shown in parentheses is the maximum inhibition achieved at a very high concentration of the compound. 100% refers to complete inhibition within experimental error of the assay.
# In certain assays a Cell-Free recombinant NOX-2 system (consisting of isolated plasma membranes from human neutrophils as a source for Nox2-p22phox, supplemented with recombinant p47phox, p67phox and Rac1Q61L (activated Rac), expressed in and isolated from of E. coli. LO12 luminescence was used as a readout to monitor enzymatic activity.
# Plasma membranes were prepared from human neutrophils, which express large amounts of Nox2 and stored at −80 C until use. Membranes are mixed with recombinant, purified cytosolic regulatory proteins (p67Np47 chimera, and constitutively active Rac1 mutant Q61) and FAD, along with varying concentrations of compound, and LO12, which luminesces when it reacts with ROSvi. The reaction is started by addition of NADPH and SDS (an artificial stimulus for Nox2). See Curnutte et al., (1987) J. Biol. Chem. 262: 6450-6452.
# human neutrophils = test: ROS production in human neutrophils; type: cell-based; conditions: Neutrophil, which express the Nox2 system, read-out: IC50 of inhibition of ROS production
# Excerpt: The Nox2 inhibition activity of two compounds is shown in FIG. 1, along with data from the two assay controls.
# Nox4 DH = target: T2, Nox4 DH (Homo sapiens, UniProt Q9NPH5); test: Nox4 DH inhibition kinetics with NADPH; type: biochemical; conditions: versus substrate NADPH; major effect on apparent Km, minor effect on Vmax
# T2 sequence (Q9NPH5 304-578 limits assumed): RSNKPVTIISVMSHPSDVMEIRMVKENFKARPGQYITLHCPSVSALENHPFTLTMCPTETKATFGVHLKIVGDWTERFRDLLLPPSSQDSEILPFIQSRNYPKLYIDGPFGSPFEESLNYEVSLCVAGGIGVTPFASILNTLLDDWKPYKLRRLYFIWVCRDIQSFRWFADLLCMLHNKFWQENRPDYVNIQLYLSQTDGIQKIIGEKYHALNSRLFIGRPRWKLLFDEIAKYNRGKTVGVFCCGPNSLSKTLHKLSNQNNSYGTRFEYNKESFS
SMILES,IC50 (NOX2),Emax (NOX2),other results
CN(C)CCCn1c(=S)[nH]c2ccc(Cl)cc2c1=O.Cl [TG6-44],1 µM,100%,mode of inhibition of Nox4 DH (Nox4 DH): competitive inhibitor; IC50 (human neutrophils): 2 µM
CCN(CC)CCn1c(=S)[nH]c2ccc(Cl)cc2c1=O [TG6-57],6 µM,80%,–
O=C(CSc1nc2ccccc2c(=O)n1CCN1CCCCC1)Nc1nc(-c2cccc(Br)c2)cs1 [TG6-81],1.5 µM,70%,–
CN1CCC(n2c(=S)[nH]c3ccccc3c2=O)CC1 [TG6-33-2],1 µM,40%,–
O=C(CSc1nc2ccccc2c(=O)n1CCCN1CCOCC1)Nc1nc(-c2cccc(Br)c2)cs1 [TG6-82],–,–,NOX2 IC50 (concentration giving half-maximal inhibition) (NOX2): Not active
CCN(CC)CCn1c(SCC(=O)Nc2nc(-c3cccc(Br)c3)cs2)nc2ccccc2c1=O [TG6-49],2 µM,30%,–
CN1CCN(CCCn2c(=S)[nH]c3ccccc3c2=O)CC1 [TG6-55],3 µM,60%,–
CN(C)CCCn1c(SCC(=O)Nc2nc(-c3cccc(F)c3)cs2)nc2ccccc2c1=O [TG6-48],–,95%,–
CN(C)CCCn1c(SCC(=O)NCc2ccco2)nc2ccccc2c1=O [TG6-23],> 10 µM,–,–
CN(C)CCCn1c(=O)[nH]c2ccccc2c1=O [TG6-31],–,–,NOX2 IC50 (concentration giving half-maximal inhibition) (NOX2): Not active
COc1ccc(N2CCN(CCn3c(=S)[nH]c4ccc(Cl)cc4c3=O)CC2)cc1 [TG7-20],0.3 µM,–,–
CCc1ccc(NC(=O)CSc2nc3ccccc3c(=O)n2CCCN(C)C)cc1 [TG6-43],> 10 µM,60%,–

# Second part, led by results:
IC50 (NOX2),Emax (NOX2),SMILES,other results
2 µM,100%,CN(C)CCCCn1c(SCC(=O)Nc2nc(-c3ccc(Br)cc3)cs2)nc2ccccc2c1=O [AS158b],IC50 (human neutrophils): 1.5 µM
6 µM,–,Nn1c(=S)[nH]c2cc(C(=O)O)ccc2c1=O [AS-262],–
2 µM,–,COc1cc2[nH]c(=S)n(O)c(=O)c2cc1OC [AS-271],–
> 10 µM,20%,O=C(CSc1nc2ccccc2c(=O)n1CCCO)Nc1nc(-c2cc(F)ccc2F)cs1 [Sample T5837596],–
8 µM,100%,CN(C)CCCn1c(SCC(=O)Nc2cc(-c3ccc(Cl)cc3)no2)nc2ccccc2c1=O [AS154b],–
12.7 µM,–,Nn1c(SCC(=O)Nc2nc(-c3ccc(Br)cc3)cs2)nc2ccccc2c1=O [AS-248],–
1 µM,–,COc1cc2[nH]c(=S)n(CCCO)c(=O)c2cc1OC [AS-270],–
1 µM,–,COc1cc2[nH]c(=S)n(CCCCN)c(=O)c2cc1OC [AS-269],–

# Source: patent publication US9868728B2, “Quinazoline derivatives, compositions, and uses related thereto” (Emory University, priority 2010, dated 2018)
